Results taken from the supplement of paper PMC10307832.

How the values were obtained:
Test in all cases: relative viability (nuclei count vs DMSO), 5 days (fraction); higher = more cells survive
[1] = compound: O=c1[nH]cc(F)c(=O)[nH]1 [5-Fluorouracil] + CC(=O)c1c(C)c2cnc(Nc3ccc(N4CCNCC4)cn3)nc2n(C2CCCC2)c1=O [Palbociclib] (partner 0.5 µM)
Outline: (§1)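 Values are medians from duplicate plates. Each reflects relative viability, defined as the nuclei count of treated wells over that of vehicle wells. Lung cancer cell lines in 1536-well plates were pin-tool dosed one day after seeding with one drug alone or with a fixed anchor-drug dose plus five library-drug doses (not always all listed) in √10 steps, then fixed, stained and imaged at 4× after 5 days.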

[2] = compound: CN[C@@H]1C[C@H]2O[C@@](C)([C@@H]1OC)n1c3ccccc3c3c4c(c5c6ccccc6n2c5c31)C(=O)NC4 [Staurosporine] + Nc1ncn([C@H]2C[C@H](O)[C@@H](CO)O2)c(=O)n1 [Decitabine] (partner 2 µM)
Outline: as §1

[3] = compound: O=c1[nH]cc(F)c(=O)[nH]1 [5-Fluorouracil] + O=C(CCCCCCC(=O)Nc1ccccc1)NO [Vorinostat] (partner 1 µM)
Outline: as §1

[4] = compound: CN[C@@H]1C[C@H]2O[C@@](C)([C@@H]1OC)n1c3ccccc3c3c4c(c5c6ccccc6n2c5c31)C(=O)NC4 [Staurosporine] + Cc1nc(NC(=O)N2CCC[C@H]2C(N)=O)sc1-c1ccnc(C(C)(C)C(F)(F)F)c1 [Alpelisib] (partner 2 µM)
Outline: as §1

Row | Cell Line | relative viability ([1]; first compound 0.02 µM) | relative viability ([1]; first compound 0.2 µM) | relative viability ([1]; first compound 0.6325 µM) | relative viability ([1]; first compound 2 µM) | relative viability ([2]; first compound 0.005 µM) | relative viability ([2]; first compound 0.01581 µM) | relative viability ([2]; first compound 0.05 µM) | relative viability ([2]; first compound 0.1581 µM) | relative viability ([2]; first compound 0.5 µM) | relative viability ([3]; first compound 0.02 µM) | relative viability ([3]; first compound 0.2 µM) | relative viability ([3]; first compound 0.6325 µM) | relative viability ([3]; first compound 2 µM) | relative viability ([4]; first compound 0.005 µM) | relative viability ([4]; first compound 0.01581 µM) | relative viability ([4]; first compound 0.05 µM) | relative viability ([4]; first compound 0.1581 µM) | relative viability ([4]; first compound 0.5 µM)
1 | NCI-H1355 | 0.41 | 0.364 | 0.241 | 0.207 | 0.389 | 0.293 | 0.281 | 0.234 | 0.152 | 0.625 | 0.49 | 0.264 | 0.243 | 0.718 | 0.422 | 0.21 | 0.215 | 0.203
2 | EKVX | – | 0.276 | – | 0.175 | 0.31 | 0.271 | 0.202 | 0.191 | 0.18 | 0.69 | 0.328 | – | – | 0.729 | 0.409 | 0.177 | 0.214 | 0.122
3 | NCI-H520 | 0.177 | 0.271 | 0.218 | 0.167 | 0.527 | 0.465 | 0.392 | 0.188 | 0.161 | 0.673 | 0.681 | 0.528 | 0.394 | 1.2 | 0.784 | 0.544 | 0.477 | 0.165
4 | NCI-H1993 | 0.681 | 1.19 | 0.469 | 0.494 | 0.665 | 0.604 | 0.573 | 0.44 | 0.354 | 0.846 | 0.552 | 0.494 | 0.547 | 0.623 | 0.668 | 0.578 | 0.503 | 0.449
5 | HCC-78 | 0.467 | 0.529 | 0.496 | 0.451 | 0.76 | 0.617 | 0.627 | 0.444 | 0.49 | 0.463 | 0.426 | 0.325 | 0.232 | 0.394 | 0.305 | 0.241 | 0.281 | 0.237
6 | NCI-H2087 | 0.234 | 0.243 | 0.164 | 0.179 | 0.28 | 0.141 | 0.094 | 0.0598 | 0.0694 | 0.801 | 0.924 | 0.515 | 0.367 | 0.875 | 0.624 | 0.449 | 0.118 | 0.125
7 | H3255 | 0.291 | 0.317 | 0.305 | 0.296 | 0.53 | 0.404 | 0.189 | 0.162 | 0.117 | 0.798 | 0.77 | 0.734 | 0.537 | 0.612 | 0.367 | 0.215 | 0.174 | 0.0798
